Assay results: US20080287546A1, “Quorum Sensing Modulators” (priority 2005, published 2008)

Assays:
[1] = system: LasR dependent quorum sensing controlled promoter, prsaL (reporter strain MW1.pUM15); test: Signal Reception Assay (SRA), inhibition of the reporter in the presence of 0.3 μM 3-oxo-C12-HSL; type: cell-based, Pseudomonas aeruginosa; settings: compound at 100 μM
Excerpt: (§1) The CSA yields a fluorescent signal reporting both signal synthesis and signal reception. The SRA yields a fluorescent signal due to signal reception. Compounds affecting signal reception can be detected by SRA. The SRA can detect compounds that modulate quorum sensing by inhibiting signal reception or activating signal reception. Inhibitor compounds are identified by performing the SRA with exogenous autoinducer at a concentration of half maximal activation and detecting changes in fluorescence indicative of inhibition of signal reception. Activator compounds are identified by performing the SRA in the absence of exogenous autoinducer.
The plasmid pUM15 carries a YFP reporter under control of a LasR dependent quorum sensing controlled promoter, prsaL. […] This is referred to as the Signal Reception Assay, as only those compounds that modulate signal reception will be detected.
Cells were grown in LB with 50 mM 3-(N-morpholino)propanesulfonic acid (MOPS) pH 7.0, 300 μg/mL carbenicillin. A single colony of MW1.pUM15 from a freshly struck plate was used to inoculate a starter culture and grown shaking at 30° C. not above an absorbance at 600 nm (A600) of 1.5. […]
Nanoplate format: Assay reagents were dispensed with the flying reagent dispenser, FRD (Vertex Pharmaceuticals Incorporated, San Diego, Calif.). […] Fluorescence was read with a SpectroFluor Plus plate reader (Tecan US, Durham, N.C.). […]

[2] = system: LasR dependent quorum sensing controlled promoter, prsaL (reporter strain MW1.pUM15); test: Signal Reception Assay (SRA), activation of the reporter in the absence of an activating signal; type: cell-based, Pseudomonas aeruginosa; settings: for activation of the reporter (agonist activity): compound at 100 μM, absence of an activating signal, SRA, MW1.pUM15
Excerpt: as §1
The plasmid pUM15 carries a YFP reporter under control of a LasR dependent quorum sensing controlled promoter, prsaL. When the plasmid is harbored by MW1, a strain lacking the ability to produce acylated homoserine lactones, the reporter is induced only in the presence of exogenous autoinducer. This is referred to as the Signal Reception Assay, as only those compounds that modulate signal reception will be detected.
Cells were grown in LB with 50 mM 3-(N-morpholino)propanesulfonic acid (MOPS) pH 7.0, 300 μg/mL carbenicillin. A single colony of MW1.pUM15 from a freshly struck plate was used to inoculate a starter culture and grown shaking at 30° C. not above an absorbance at 600 nm (A600) of 1.5. Cells were subcultured to A600 of 0.05 and grown shaking at 37° C. for 1-2 h. These mid-logarithmic cells were then added to dried down 3-oxo-C12-HSL to result in a final concentration of 0.3 μM. Induced cells were pipetted into wells containing the test compound. Uninduced cells were included as a control for the assay window. When the assay was used to characterize a potential activator, no homoserine lactone was added.
Nanoplate format: Assay reagents were dispensed with the flying reagent dispenser, FRD (Vertex Pharmaceuticals Incorporated, San Diego, Calif.). An aliquot of 1.5 μL reporter culture was added to wells in 3,456-well plates (3456 plates) and grown for 8-12 h before reading fluorescence with the topography-compensating plate reader, tcPR (Vertex Pharmaceuticals Incorporated, San Diego, Calif.). DR96 format: an aliquot of 50 μL culture was added to 96 well plate and grown for 6-8 h. Fluorescence was read with a SpectroFluor Plus plate reader (Tecan US, Durham, N.C.).
In all formats, plates were sealed in a humidified container and incubated staticly at 37° C. Fluorescence measurements were made with an excitation wavelength of 485 nm and emission wavelength of […]. To evaluate growth in the presence of test compound, the absorbance at 620 nm was also recorded.
The compounds in Table 2 were purchased from Chembridge Corp. (San Diego, Calif.), Specs (Wakefield, R.I.), Interbioscreen Ltd. (Moscow, Russia) and Chemical Diversity Labs, Inc. (San Diego, Calif.), and were characterized with the reporter strain MW1.pUM15 in both microtiter plate format and a shaking tube format. […] The tube format was performed to eliminate plate effects that may mask low levels of inhibition.
In both formats, the compounds were tested for (1) activation of the reporter in the absence of an activating signal, and (2) inhibition of the reporter in the presence of 0.3 μM 3-oxo-C12-HSL. All compounds were tested at 100 μM for their ability to activate or inhibit quorum sensing using the SRA assay. […]

Row | Compound | inhibition of the reporter (antagonist activity) [1] | activation of the reporter (agonist activity) [2] | activation efficacy (FIG. 2), compared with 3-oxo-C12-HSL ([2]; fluorescence in the SRA as a function of concentration, in the presence of 0.75% DMSO)
1 | O=C(Nc1ccccc1NC(=O)c1cccc(Cl)c1)c1cccc(Cl)c1 [Compound 1] | largest degree of inhibition | – | –
2 | Cc1ccccc1C(=O)Oc1c(Br)cc(Br)cc1CNC(=O)c1ccccc1Cl [Compound 3] | – | activating effects | –
3 | O=C(Oc1c(Br)cc(Br)cc1CNC(=O)c1ccccc1Cl)c1ccc(F)cc1 [Compound 2] | – | activating effects | –
4 | Cc1cc(C)c(OC(=O)c2ccc(Cl)cc2Cl)c(CNC(=O)c2ccccc2Cl)c1 [Compound 4] | – | activating effects | –
5 | O=C(NCc1cc(Br)cc(Br)c1OC(=O)c1ccccc1[N+](=O)[O-])c1ccccc1Cl [Compound 5] | – | activating effects | an activating effect equal to 3-oxo-C12-HSL but at reduced concentrations
